System: baboon
Assay: Preliminary toxicological study in the baboon
Format: in vivo
Parameters: creatine level / Granulocytes / Platelets: unit not given here
Procedure: In order to find out the maximum tolerable dose, two baboons, identified by no 1 and no 2, received 100 mg/kg and 150 mg/kg respectively without prehydration. Hydration was performed on baboon no 3 which received a dose of 200 mg/kg.
The compound was injected into the femoral vein during 5 to 10 minutes. Baboon No. 3 (200 mg/kg) received 700 ml of physiological serum by intravenous route. Baboons Nos. 1 and 2 received 1000 ml by sub-cutaneous route.
Gastro-intestinal toxicity was the first type of toxicity to appear and generally manifested itself 1 to 2 hours after injection of the compound. […] D0 was the day of treatment and a sample was taken before the compound was injected.
The results on D0 were therefore control values.

[1] = baboon No 1, 100 mg/kg i.v., D2
[2] = baboon No 1, 100 mg/kg i.v., D6
[3] = baboon No 1, 100 mg/kg i.v., D16
[4] = baboon No 1, 100 mg/kg i.v., D30
[5] = baboon No 1, 100 mg/kg i.v., D37
[6] = baboon No 1, 100 mg/kg i.v., D38
[7] = baboon No 1, 100 mg/kg i.v., D41
[8] = baboon No 1, 100 mg/kg i.v., D48
[9] = baboon No 1, 100 mg/kg i.v., D57
[10] = baboon No 1, 100 mg/kg i.v., D62
[11] = baboon No 1, 100 mg/kg i.v., D76
[12] = baboon No 1, 100 mg/kg i.v., D79
[13] = baboon No 1, 100 mg/kg i.v., D85
[14] = baboon No 1, 100 mg/kg i.v., D90
[15] = baboon No 1, 100 mg/kg i.v., D100
[16] = baboon No 1, 100 mg/kg i.v., D105
[17] = baboon No 1, 100 mg/kg i.v., D106
[18] = baboon No 1, 100 mg/kg i.v., D111
[19] = baboon No 1, 100 mg/kg i.v., D122
[20] = baboon No 1, 100 mg/kg i.v., D129
[21] = baboon No 1, 100 mg/kg i.v., D134
[22] = baboon No 1, 100 mg/kg i.v., D140
[23] = baboon No 2, 150 mg/kg i.v., D1
[24] = baboon No 2, 150 mg/kg i.v., D4
[25] = baboon No 2, 150 mg/kg i.v., D11
[26] = baboon No 3, 200 mg/kg i.v., D4
[27] = baboon No 3, 200 mg/kg i.v., D6
[28] = baboon No 3, 200 mg/kg i.v., D12
[29] = baboon No 3, 200 mg/kg i.v., D15
[30] = baboon No 3, 200 mg/kg i.v., D18
[31] = baboon No 3, 200 mg/kg i.v., D24
[32] = baboon No 3, 200 mg/kg i.v., D30
[33] = baboon No 3, 200 mg/kg i.v., D40

SMILES: NC1CCCCC1N.O=C([O-])CC(C(=O)[O-])C([O-])C(=O)[O-].[H+].[H+].[Pt+2] (stereo not drawn) [PHIC, cis-isocitrato (1,2-diaminocyclohexane) platinum (II)]
- nephrotoxic effect (100 mg/kg i.v., absence of hydration): no nephrotoxic effect was observed
- day on which creatinine levels return to normal values (200 mg/kg i.v. with hydration): 18 days
- nephrotoxicity (200 mg/kg i.v. with hydration): nephtotoxicity is detected
- vomiting (severity) (100-200 mg/kg i.v.): vomiting was not profuse
- Quick plasma prothrombin time (baboon No 1, 100 mg/kg i.v., D1): 75%
- Creatinine [1]: 110 μmols/l
- Fibrinogen I [1]: 2.25 g/L
- Quick plasma prothrombin time [1]: 80%
- Creatinine [2]: 91 μmols/l
- Fibrinogen I [2]: 2.40 g/L
- Granulocytes [2]: 2480
- Platelets [2]: 526000
- Proaccelerin V [2]: 100%
- Proconvertin VII + Stuart factor X [2]: 70%
- Prothrombin II [2]: 95%
- Quick plasma prothrombin time [2]: 65%
- Weight [2]: 7.7 kg
- Creatinine [3]: 105 μmols/l
- Fibrinogen I [3]: 1.95 g/L
- Granulocytes [3]: 4560
- Platelets [3]: 414000
- Quick plasma prothrombin time [3]: 95%
- Weight [3]: 8.4 kg
- Creatinine [4]: 138 μmols/l
- Fibrinogen I [4]: 1.52 g/L
- Granulocytes [4]: 3969
- Platelets [4]: 414000
- Quick plasma prothrombin time [4]: 85%
- Creatinine [5]: 99 μmols/l
- Fibrinogen I [5]: 1.46 g/L
- Granulocytes [5]: 2989
- Platelets [5]: 362000
- Quick plasma prothrombin time [5]: 85%
- Weight [5]: 8.35 kg
- Creatinine [6]: 85 μmols/l
- Fibrinogen I [6]: 1.85 g/L
- Granulocytes [6]: 4824
- Platelets [6]: 299000
- Quick plasma prothrombin time [6]: 85%
- Creatinine [7]: 102 μmols/l
- Fibrinogen I [7]: 2.72 g/L
- Granulocytes [7]: 4212
- Platelets [7]: 371000
- Quick plasma prothrombin time [7]: 100%
- Creatinine [8]: 136 μmols/l
- Fibrinogen I [8]: 2.70 g/L
- Granulocytes [8]: 3696
- Platelets [8]: 708000
- Quick plasma prothrombin time [8]: 95%
- Weight [8]: 7.6 kg
- Creatinine [9]: 96 μmols/l
- Fibrinogen I [9]: 2.67 g/L
- Granulocytes [9]: 2498
- Platelets [9]: 329000
- Quick plasma prothrombin time [9]: 90%
- Weight (baboon No 1, 100 mg/kg i.v., D58): 8.45 kg
- Creatinine [10]: 136 μmols/l
- Fibrinogen I [10]: 1.86 g/L
- Granulocytes [10]: 3726
- Platelets [10]: 378000
- Quick plasma prothrombin time [10]: 50%
- Creatinine [11]: 121 μmols/l
- Fibrinogen I [11]: 1.75 g/L
- Granulocytes [11]: 1071
- Platelets [11]: 375000
- Quick plasma prothrombin time [11]: 95%
- Creatinine [12]: 138 μmols/l
- Fibrinogen I [12]: 2.10 g/L
- Granulocytes [12]: 2541
- Platelets [12]: 382000
- Quick plasma prothrombin time [12]: 95%
- Weight (baboon No 1, 100 mg/kg i.v., D84): 7.93 kg
- Creatinine [13]: 97 μmols/l
- Fibrinogen I [13]: 2.08 g/L
- Granulocytes [13]: 3599
- Platelets [13]: 549000
- Proaccelerin V [13]: 100%
- Proconvertin VII + Stuart factor X [13]: 90%
- Quick plasma prothrombin time [13]: 85%
- Creatinine [14]: 96 μmols/l
- Granulocytes [14]: 1917
- Platelets [14]: 685000
- Creatinine [15]: 110 μmols/l
- Fibrinogen I [15]: 2.50 g/L
- Granulocytes [15]: 3230
- Platelets [15]: 340000
- Quick plasma prothrombin time [15]: 95%
- Creatinine [16]: 60 μmols/l
- Fibrinogen I [16]: 2.25 g/L
- Granulocytes [16]: 2030
- Platelets [16]: 266000
- Quick plasma prothrombin time [16]: 95%
- Weight [16]: 8.59 kg
- Creatinine [17]: 120 μmols/l
- Fibrinogen I [17]: 2.20 g/L
- Granulocytes [17]: 10120
- Platelets [17]: 231000
- Quick plasma prothrombin time [17]: 75%
- Creatinine [18]: 102 μmols/l
- Fibrinogen I [18]: 2.20 g/L
- Granulocytes [18]: 1121
- Platelets [18]: 345000
- Proaccelerin V [18]: 100%
- Proconvertin VII + Stuart factor X [18]: 39%
- Prothrombin II [18]: 70%
- Quick plasma prothrombin time [18]: 48%
- Fibrinogen I [19]: 2.10 g/L
- Granulocytes [19]: 1232
- Platelets [19]: 348000
- Quick plasma prothrombin time [19]: 100%
- BUN (baboon No 1, 100 mg/kg i.v., D122, normal range 3-7 mmol/l): 4.5 mmol/L
- Creatinine [20]: 90 μmols/l
- Fibrinogen I [20]: 2.15 g/L
- Granulocytes [20]: 5406
- Platelets [20]: 508000
- Quick plasma prothrombin time [20]: 100%
- Weight (baboon No 1, 100 mg/kg i.v., D133): 7.65 kg
- Creatinine [21]: 126 μmols/l
- Granulocytes [21]: 7245
- Platelets [21]: 580000
- Creatinine [22]: 114 μmols/l
- Fibrinogen I [22]: 2.50 g/L
- Granulocytes [22]: 4794
- Platelets [22]: 441000
- Quick plasma prothrombin time [22]: 100%
- creatine level (baboon No 2, 150 mg/kg i.v.): 1552
- death (baboon No 2, 150 mg/kg i.v.): died on D11
- food and water intake (baboon No 2, 150 mg/kg i.v.): neither eaten nor drunk for 11 days
- Creatinine [23]: 96 μmols/l
- Fibrinogen I [23]: 1.46 g/L
- Granulocytes [23]: 9672
- Platelets [23]: 261000
- Proaccelerin V [23]: 70%
- Proconvertin VII + Stuart factor X [23]: 62%
- Prothrombin II [23]: 42%
- Quick plasma prothrombin time [23]: 60%
- Creatinine [24]: 245 μmols/l
- Fibrinogen I [24]: 2.82 g/L
- Granulocytes [24]: 1988
- Platelets [24]: 212000
- Quick plasma prothrombin time [24]: 85%
- Creatinine [25]: 1552 μmols/l
- Fibrinogen I [25]: 4.20 g/L
- Granulocytes [25]: 555
- Platelets [25]: 174000
- Proaccelerin V [25]: 100%
- Proconvertin VII + Stuart factor X [25]: 55%
- Prothrombin II [25]: 55%
- Quick plasma prothrombin time [25]: 55%
- Weight [25]: 5.5 kg
- Creatinine [26]: 140 μmols/l
- Fibrinogen I [26]: 2.70 g/L
- Granulocytes [26]: 4536
- Platelets [26]: 70000
- Proaccelerin V [26]: 100%
- Proconvertin VII + Stuart factor X [26]: < 5%
- Prothrombin II [26]: 30%
- Quick plasma prothrombin time [26]: 10%
- Weight [26]: 6.25 kg
- Creatinine [27]: 350 μmols/l
- Fibrinogen I [27]: 3.00 g/L
- Granulocytes [27]: 5236
- Platelets [27]: 208000
- Proaccelerin V [27]: 100%
- Proconvertin VII + Stuart factor X [27]: 25%
- Prothrombin II [27]: 25%
- Quick plasma prothrombin time [27]: 30%
- Creatinine [28]: 646 μmols/l
- Fibrinogen I [28]: 4.80 g/L
- Granulocytes [28]: 7905
- Platelets [28]: 241000
- Quick plasma prothrombin time [28]: 85%
- Weight [28]: 5.31 kg
- Creatinine [29]: 265 μmols/l
- Fibrinogen I [29]: 3.85 g/L
- Granulocytes [29]: 3550
- Platelets [29]: 114000
- Quick plasma prothrombin time [29]: 90%
- Creatinine [30]: 118 μmols/l
- Fibrinogen I [30]: 2.60 g/L
- Granulocytes [30]: 722
- Platelets [30]: 312000
- Quick plasma prothrombin time [30]: 100%
- Creatinine [31]: 97 μmols/l
- Fibrinogen I [31]: 2.00 g/L
- Granulocytes [31]: 4872
- Platelets [31]: 366000
- Quick plasma prothrombin time [31]: 100%
- Weight [31]: 5.6 kg
- Creatinine [32]: 104 μmols/l
- Fibrinogen I [32]: 2.25 g/L
- Granulocytes [32]: 10752
- Platelets [32]: 457000
- Quick plasma prothrombin time [32]: 95%
- Weight [32]: 5.9 kg
- Creatinine [33]: 94 μmols/l
- Fibrinogen I [33]: 1.50 g/L
- Granulocytes [33]: 4731
- Platelets [33]: 299000
- Quick plasma prothrombin time [33]: 95%
- Weight [33]: 6.33 kg
- toxicity (in words) (baboons): Extremely low toxicity
